We go through two molecules from patent US6753345B2, “7-hexanolytaxol and methods for preparing the same” (Hauser, Inc., priority 1998, dated 2004).

For one data set, the system named is CCRF-CEM. Particulars: human, 48 h.
Data set [1] concerns cell line panel (60 lines, nine disease-related subpanels).
The subject of a further data set is MAXF 401. As to the kind of experiment: SRB cytotoxicity screening assay (Breast Cancer). The data set is classed as cell-based. Particulars: MAXF 401 (Breast Cancer), 48 hour incubation.
In a further data set the test system is MDR+ cell line. As to the kind of experiment: Multidrug resistant cell line screening (MDR ratio). The data set is classed as cell-based. The text has this:
The compound of the present invention was further tested on multidrug resistant cell lines. The resistance of cancer cells to multiple chemotherapeutic drugs which are structurally unrelated has been termed “multidrug resistance.” In the past several years, several mechanisms of multidrug resistance have been described, including the expression of a cell surface multidrug efflux pump (P-glycoprotein or the multidrug transporter), altered glutathione metabolism, reduced activity of topoisomerase II, and various less clearly defined changes in cellular proteins. Because of evidence that expression of P-glycoprotein is associated with drug-resistance in cancer, P-glycoprotein has been studied extensively from the point of view of its biochemistry and mechanism of action in order to develop inhibitors which can be used clinically to reverse drug resistance of cancers in patients. The clinical significance of the other mechanisms of multidrug resistance are less well-established, but many model systems indicate that they may contribute to clinical resistance.

Another data set has as its system SK-OV-3. In words: SRB cytotoxicity screening assay (Ovarian).
The test system of another data set is SK-MEL-28. In words: SRB cytotoxicity screening assay (Melanoma).
The subject of the next data set is SK-MEL-5. In words: SRB cytotoxicity screening assay (Melanoma).
The subject of the next data set is SF-268. As to the kind of experiment: SRB cytotoxicity screening assay (CNS Cancer).
The test system of a further data set is SF-295. As to the kind of experiment: SRB cytotoxicity screening assay (CNS Cancer).
The subject of a further data set is SNB-75. In words: SRB cytotoxicity screening assay (CNS Cancer).
The subject of the next data set is ACHN. As to the kind of experiment: SRB cytotoxicity screening assay (Renal Cancer).
For a further data set, the system named is CAKI-1. As to the kind of experiment: SRB cytotoxicity screening assay (Renal Cancer).
The next data set concerns MDA-MB-435. In words: SRB cytotoxicity screening assay (Breast Cancer).
Another data set concerns MDA-N. As to the kind of experiment: SRB cytotoxicity screening assay (Breast Cancer).
A further data set relates to SK-BR-3. As to the kind of experiment: SRB cytotoxicity screening assay (Breast Cancer).
The subject of the next data set is NCI-H23. As to the kind of experiment: SRB cytotoxicity screening assay (Non-Small Cell Lung Cancer).

Each structure is given as a SMILES string.

As to `CC(=O)O[C@H]1C(=O)[C@@]2(C)[C@H]([C@H](OC(=O)c3ccccc3)[C@]3(O)C[C@H](OC(=O)[C@H](O)[C@@H](NC(=O)c4ccccc4)c4ccccc4)C(C)=C1C3(C)C)[C@]1(OC(C)=O)CO[C@@H]1C[C@@H]2O` [Paclitaxel, paclitaxel, reference compound], the “Log10 LC50” value in the data set on CCRF-CEM was greater than −4.00 molar. Moreover, the “Log10 LC50, Range” value in data set [1] stood at 0.45.

Regarding `CCCCCC(=O)O[C@H]1C[C@H]2OC[C@@]2(OC(C)=O)[C@H]2[C@H](OC(=O)c3ccccc3)[C@]3(O)C[C@H](OC(=O)[C@H](O)[C@@H](NC(=O)c4ccccc4)c4ccccc4)C(C)=C([C@@H](OC(C)=O)C(=O)[C@]12C)C3(C)C` [7-hexanoyltaxol], the GI50 in the data set on MAXF 401 (Homo sapiens, MAXF401, PG=+50, read-out: Log10 GI50 (converted)) was less than 10 nM; in the data set with SK-OV-3 (Homo sapiens, SK-OV-3, 48 h, read-out: Log10 GI50 (converted)), less than 10 nM; in the data set on SK-MEL-28 (Homo sapiens, SK-MEL-28, 48 h, read-out: Log10 GI50 (converted)), less than 10 nM; with SK-MEL-5 (Homo sapiens, SK-MEL-5, 48 h, read-out: Log10 GI50 (converted)), less than 10 nM; with SF-268 (Homo sapiens, SF-268, 48 h, read-out: Log10 GI50 (converted)), less than 10 nM; in the data set on SF-295 (Homo sapiens, SF-295, 48 h, read-out: Log10 GI50 (converted)), less than 10 nM. The concentration for 50% growth inhibition (GI50) in the data set with SNB-75 (Homo sapiens, SNB-75, 48 h, read-out: Log10 GI50 (converted)) was less than 10 nM; in the data set on ACHN (Homo sapiens, ACHN, 48 h, read-out: Log10 GI50 (converted)), 95.5 nM; with CAKI-1 (Homo sapiens, CAKI-1, 48 h, read-out: Log10 GI50 (converted)) it was 263 nM; with MDA-MB-435 (Homo sapiens, MDA-MB-435, 48 h, read-out: Log10 GI50 (converted)) it was less than 10 nM; in the data set on MDA-N (Homo sapiens, MDA-N, 48 h, read-out: Log10 GI50 (converted)), less than 10 nM; in the data set on SK-BR-3 (Homo sapiens, SK-BR-3, 48 h, read-out: Log10 GI50 (converted)), less than 10 nM. The GI50 with NCI-H23 (Homo sapiens, NCI-H23, 48 h, read-out: Log10 GI50 (converted)) was less than 10 nM. The “Log10 TGI” value is reported as less than −8.00 molar in the data set on MAXF 401 (PG=0); −4.84 molar in the data set on SK-OV-3 (SK-OV-3 (Ovarian), PG=0, 48 hour incubation); −4.33 molar with SK-MEL-28 (SK-MEL-28 (Melanoma), PG=0, 48 hour incubation); −4.56 molar in the data set on SK-MEL-5 (SK-MEL-5 (Melanoma), PG=0, 48 hour incubation); −4.95 molar with SF-268 (SF-268 (CNS Cancer), PG=0, 48 hour incubation); −6.41 molar in the data set with SF-295 (SF-295 (CNS Cancer), PG=0, 48 hour incubation). In addition, the “Log10 TGI” value in the data set with SNB-75 (SNB-75 (CNS Cancer), PG=0, 48 hour incubation) is recorded as −7.41 molar; in the data set with ACHN (ACHN (Renal Cancer), PG=0, 48 hour incubation), greater than −4.00 molar; in the data set on CAKI-1 (CAKI-1 (Renal Cancer), PG=0, 48 hour incubation), −4.52 molar; in the data set with MDA-MB-435 (MDA-MB-435 (Breast Cancer), PG=0, 48 hour incubation), less than −8.00 molar; in the data set with MDA-N (MDA-N (Breast Cancer), PG=0, 48 hour incubation), less than −8.00 molar; with SK-BR-3 (SK-BR-3 (Breast Cancer), PG=0, 48 hour incubation) it was −6.04 molar. Moreover, the “Log10 TGI” value with NCI-H23 (NCI-H23 (Non-Small Cell Lung Cancer), PG=0, 48 hour incubation) is −4.86 molar. Moreover, in the data set with MDR+ cell line (higher numbers = less effective vs. MDR cells), the “MDR (ratio of two IC50 values, numerator is an MDR+ cell line)” value came out at 1. Besides, in the data set with MDR+ cell line (multidrug resistant cell lines), the “effectiveness against multidrug resistant cell lines compared with paclitaxel” value is listed as “vastly more effective than paclitaxel”. Moreover, the CC50 with SK-OV-3 (Homo sapiens, SK-OV-3, 48 h, read-out: Log10 LC50 (converted)) is 91200 nM; in the data set with SK-MEL-28 (Homo sapiens, SK-MEL-28, 48 h, read-out: Log10 LC50 (converted)), greater than 100000 nM; in the data set on SK-MEL-5 (Homo sapiens, SK-MEL-5, 48 h, read-out: Log10 LC50 (converted)) it was greater than 100000 nM; with SF-268 (Homo sapiens, SF-268, 48 h, read-out: Log10 LC50 (converted)), greater than 100000 nM; with SF-295 (Homo sapiens, SF-295, 48 h, read-out: Log10 LC50 (converted)), greater than 100000 nM; with SNB-75 (Homo sapiens, SNB-75, 48 h, read-out: Log10 LC50 (converted)), greater than 100000 nM. Also, the CC50 in the data set on ACHN (Homo sapiens, ACHN, 48 h, read-out: Log10 LC50 (converted)) was greater than 100000 nM; with CAKI-1 (Homo sapiens, CAKI-1, 48 h, read-out: Log10 LC50 (converted)) it was greater than 100000 nM; with MDA-MB-435 (Homo sapiens, MDA-MB-435, 48 h, read-out: Log10 LC50 (converted)), less than 10 nM; with MDA-N (Homo sapiens, MDA-N, 48 h, read-out: Log10 LC50 (converted)) it was less than 10 nM; in the data set with SK-BR-3 (Homo sapiens, SK-BR-3, 48 h, read-out: Log10 LC50 (converted)), greater than 100000 nM; with NCI-H23 (Homo sapiens, NCI-H23, 48 h, read-out: Log10 LC50 (converted)) it was 45700 nM.

A word on the GI50: it is the concentration that inhibits growth by half.
